Columns and labels:
melasma [1] = settings: cited from earlier work
tail of SKH:HR2 mice [2] = assay: Clinical pigmentation score on the tail of SKH:HR2 mice after topical application; type: in vivo; settings: for depigmenting activity (clinical pigmentation score): 4 weeks
Experimental: (§1) The depigmenting activity of fluocinolone acetonide and of hydrocortisone was evaluated on the tail of female SKH:HR2 mice that were 6 weeks old at the beginning of the study. The products were applied topically (20 μl of product to the tail), 5 days a week for 4 weeks. Each group contains 5 animals:
Clinical observations: once a week the pigmentation is scored on a scale ranging from 0 (base pigmentation) to −4 (total depigmentation).
The depigmenting activities of three corticosteroids, fluocinolone acetonide, desonide and β-methasone valerate, were evaluated on the tail of female SKH:HR2 mice that were 8 weeks old at the beginning of the study. The products were applied topically (20 μl of product to the tail), 5 days a week for 5 weeks. Each group contains 6 animals.
Clinical observations: once a week, the pigmentation is scored on a scale ranging from 0 (base pigmentation) to −4 (total depigmentation).
The depigmenting activity of fluocinolone acetonide and of desonide was evaluated on the tail of female SKH:HR2 mice that were 8 weeks old at the beginning of the study. The products were applied topically (20 μl of product to the tail), 5 days a week for 4 weeks.

tail of SKH:HR2 mice [3] = assay: Fontana-Masson-positive surface area in living epidermis of the tail (histology, image analysis); type: in vivo; settings: 4 weeks
Experimental: as §1
A tail skin sample is taken at the end of the study and fixed with formol in order to carry out a histological analysis.
The epidermal surface area taken up by melanin is measured by image analysis on histological sections stained by the Fontana-Masson technique, which makes it possible to reveal the pigments. For each animal, the Fontana-Masson-positive surface area is measured by image analysis on five fields of interfollicular epidermis and weighted with respect to the length of corresponding epidermis in order to avoid any possible bias due to hyperplasia or atrophy of the epidermis. Since the horny layer is partially lost during the treatment of the samples, the measurement is carried out only in the living layers of the epidermis.

melasma [4] = settings: monotherapy; cited from earlier work

CCC(=O)O[C@]1(C(=O)CCl)[C@@H](C)C[C@H]2[C@@H]3CCC4=CC(=O)C=C[C@]4(C)[C@@]3(F)[C@@H](O)C[C@@]21C [clobetasol propionate]
cases in which treatment had to be stopped due to local atrophy and telangiectasiae (melasma [1]; 0.05% topical, stopped after 4 weeks): 30% | patients with lightening in whom the melasma reappeared at the same sites (melasma [1]; 2 to 3 weeks after the treatment had been stopped): 57%

CC1(C)O[C@@H]2C[C@H]3[C@@H]4C[C@H](F)C5=CC(=O)C=C[C@]5(C)[C@@]4(F)[C@@H](O)C[C@]3(C)[C@]2(C(=O)CO)O1 [fluocinolone acetonide]
depigmenting activity (clinical pigmentation score) (tail of SKH:HR2 mice [2]; Example 1, 0.0005% topical): remains substantial | depigmentation of the tail (clinical pigmentation score) (tail of SKH:HR2 mice [2]; Example 1, 0.01% topical, 5 days a week, after 4 weeks, compared with hydrocortisone at same concentration): marked depigmentation | depigmentation observed (clinical pigmentation score) (tail of SKH:HR2 mice [2]; Example 2, 0.01% topical, after 5 weeks): virtually total | depigmenting activity compared with other corticosteroids (tail of SKH:HR2 mice [2]; Example 2, equivalent concentration of 0.01%, 5 weeks): greater depigmenting activity than desonide and than β-methasone valerate | depigmenting activity (clinical pigmentation score) (tail of SKH:HR2 mice [2]; Example 3, 0.005% topical): very significant depigmenting activity | depigmenting activity compared with desonide (tail of SKH:HR2 mice [2]; Example 3, equivalent concentration, throughout the study (4 weeks)): remains greater than that of desonide | decrease in the Fontana-Masson-positive surface area in the living layers of the tail epidermis (tail of SKH:HR2 mice [3]; 0.0005% topical): 72% | decrease in the Fontana-Masson-positive surface area in the living layers of the tail epidermis (tail of SKH:HR2 mice [3]; 0.01% topical): 85%

C[C@]12CCC(=O)C=C1CC[C@@H]1[C@@H]2[C@@H](O)C[C@@]2(C)[C@H]1CC[C@]2(O)C(=O)CO [hydrocortisone]
depigmenting activity (clinical pigmentation score) (tail of SKH:HR2 mice [2]; Example 1, 0.01% increased to 0.5% topical): only a very weak depigmenting activity | change of Fontana-Masson-positive surface area (tail of SKH:HR2 mice [3]; up to the concentration of 0.5% topical): does not significantly modify

Oc1ccc(O)cc1 [hydroquinone]
time necessary to obtain a significant result (melasma [4]): 12 weeks

CC1=C(/C=C/C(C)=C/C=C/C(C)=C/C(=O)O)C(C)(C)CCC1 [tretinoin]
time necessary to obtain a significant result (melasma [4]): 40 weeks
